# Reference: patent publication US20190022039A1, “COMPOUND HAVING ENHANCING ACTIVITY FOR GLUCAGON-LIKE PEPTIDE-1 RECEPTOR ACTIONS” (AJINOMOTO CO., INC., priority 2016, published 2019)
# Target: T1, human GLP-1R (Homo sapiens, UniProt P43220)
# T1 construct: expressed in transfected cells; host or cells: PEAK RAPID-derived Gα15-trans48 LD stably expressing cells (PRG48), transiently transfected with Lipofectamine 2000
# Test: GLP-1 receptor in vitro calcium assay (intracellular free calcium concentration change induced via GLP-1 receptor)
# Assay type: cell-based
# Details: for EC50: PRG48 cells transfected with human GLP-1R, compound added with 250 pM GLP-1, Ca2+ response ΔF/F, read-out: Ca EC50 value; for GLP-1 receptor action enhancing activity (vs BETP): intensity compared to BETP, activity of BETP as 1
# Protocol: The supernatant was removed by centrifugation (1,200 rpm, 3 min), and the cells were suspended at 4×10^6 cells/mL in 5% FBS DMEM/Ham's F-12. 1.0 mL thereof was seeded in a 15 cm dish and cultured (37° C., 5% CO2) overnight. The next day, the medium of the cultured PRG48 cells was replaced with 5% FBS DMEM/Ham's F-12 medium (30 mL), human GLP-1R gene mixture solution (GLP-1R/pc.DNA3.1(+) 60 μg) prepared using 6.0 mL of Opti-MEM (invitrogen) and 120 μL of Lipofectamin 2000 (invitrogen) was slowly added to the cells, and cultured (37° C., 5% CO2) for 6 hr to introduce the gene. […] The cells were counted, suspended at 0.5×10^6 cells/mL in 5% FBS DMEM/Ham's F-12 medium, and seeded in each well of D-Lysine coat 96 well plate (BD Bioscience) at 7.0×10^4 cells. After static adhesion at room temperature for 1 hr, the cells were cultured overnight (37° C., 5% CO2). The medium in the Cultured 96 well was entirely discarded, 150 μL of intracellular calcium measurement staining solution Calcium assay kit Express (Molecular Device) diluted 80-fold with Assay buffer (20 mM HEPES, 146 mM NaCl, 1 mM MgSO4, 1.39 mM glucose, 1 mM CaCl2, 2.5 mM Probenecid, 0.05% Casein Enzymatic Hydrolysate) was added, and the mixture was stood at 37° C. for 30 min, and then at room temperature for 45 min to perform staining. After staining, 250 pM GLP-1 and the compound were added and Ca^2+ response was observed by using FDSSμCELL (Hamamatsu Photonics K.K.). Each evaluation compound was dissolved in DMSO, further diluted with Assay buffer and used.
# For evaluation, the fluorescence values (Ex480:Em540) before and after addition were measured, and changes in the intracellular free calcium concentration produced via GLP-1R receptor by the addition were quantitatively examined. For the measurement and analysis of the fluorescence values, a soft (FDSS7000EX) attached to the FDSSμCELL was used, and ΔF/F value ((maximum fluorescence value after stimulation−minimum fluorescence value after stimulation)/fluorescence value before stimulation) was calculated. Using the obtained ΔF/F values, EC50 value was calculated by Prism5.
# T1 sequence (P43220 24-463): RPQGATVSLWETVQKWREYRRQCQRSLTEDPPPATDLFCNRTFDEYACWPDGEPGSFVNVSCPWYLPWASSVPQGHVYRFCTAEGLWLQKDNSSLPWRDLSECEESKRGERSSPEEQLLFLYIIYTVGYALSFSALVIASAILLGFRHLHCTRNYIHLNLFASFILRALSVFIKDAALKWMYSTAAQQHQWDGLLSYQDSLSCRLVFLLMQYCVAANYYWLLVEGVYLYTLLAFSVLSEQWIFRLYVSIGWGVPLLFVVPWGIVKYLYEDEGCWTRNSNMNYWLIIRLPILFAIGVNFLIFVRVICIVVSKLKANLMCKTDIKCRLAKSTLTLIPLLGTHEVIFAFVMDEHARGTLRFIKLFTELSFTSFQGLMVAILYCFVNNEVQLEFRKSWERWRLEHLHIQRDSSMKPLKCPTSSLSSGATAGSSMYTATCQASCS
Compound,EC50 [nM],GLP-1 receptor action enhancing activity (vs BETP)
"CC[S+]([O-])c1nc(-c2cccc(OCc3ccccc3)c2)cc(C(F)(F)F)n1 (centres unmarked) [BETP, 4-(3-benzyloxyphenyl)-2-ethylsulfinyl-6-(trifluoromethyl)pyrimidine, reference compound]",25000,1
"CCCCC(CC)CNC(=O)[C@@H](Cc1ccc(Cl)cc1)NC(=O)Nc1ccc(NS(=O)(=O)c2ccc(C(C)(C)C)cc2)cc1 (stereo partly drawn) [Compound 1, (2R)-2-({4-[(4-tert-butylphenyl)sulfonylamino]phenyl}carbamoylamino)-3-(4-chlorophenyl)-N-(2-ethylhexyl)propanamide]",4.3,–
CCCCCCNC(=O)[C@@H](CC(C)C)NC(=O)Nc1ccc(NS(=O)(=O)c2ccc(C)cc2)cc1 [Compound 11],490,52
CCCCCCNC(=O)[C@@H](CCCC)NC(=O)Nc1ccc(NS(=O)(=O)c2ccc(C)cc2)cc1 [Compound 16],520,49
CCCCCCNC(=O)[C@@H](CC1CCCCC1)NC(=O)Nc1ccc(NS(=O)(=O)c2ccc(C)cc2)cc1 [Compound 18],360,71
CCCCCCNC(=O)[C@@H](Cc1ccc(Cl)cc1)NC(=O)Nc1ccc(NS(=O)(=O)c2ccc(C)cc2)cc1 [Compound 19],160,–
CCCCCCNC(=O)[C@@H](CCSC)NC(=O)Nc1ccc(NS(=O)(=O)c2ccc(C)cc2)cc1 [Compound 20],1500,17
CCCCCCNC(=O)[C@@H](Cc1c[nH]c2ccccc12)NC(=O)Nc1ccc(NS(=O)(=O)c2ccc(C)cc2)cc1 [Compound 21],470,53
Cc1ccc(S(=O)(=O)Nc2ccc(NC(=O)N[C@H](Cc3ccccc3)C(=O)NC3CCCCCC3)cc2)cc1 [Compound 23],370,68
Cc1ccc(S(=O)(=O)Nc2ccc(NC(=O)N[C@H](CC(C)C)C(=O)NCCc3cccs3)cc2)cc1 [Compound 28],1800,14
Cc1ccc(S(=O)(=O)Nc2ccc(NC(=O)N[C@H](CC(C)C)C(=O)NCC3CCCCC3)cc2)cc1 [Compound 29],940,27
CCC(CC)CNC(=O)[C@@H](CC(C)C)NC(=O)Nc1ccc(NS(=O)(=O)c2ccc(C)cc2)cc1 [Compound 30],1200,21
CCCC[C@@H](NC(=O)[C@@H](Cc1ccccc1)NC(=O)Nc1ccc(NS(=O)(=O)c2ccc(C)cc2)cc1)C(=O)OC [Compound 33],1500,17
CCCCC(CC)CNC(=O)[C@@H](Cc1ccccc1)NC(=O)Nc1ccc(NS(=O)(=O)c2ccc(C(C)(C)C)cc2)cc1 (some centres unmarked) [Compound 36],18,1425
CCCCC(CC)CNC(=O)[C@@H](CC(C)C)NC(=O)Nc1ccc(NS(=O)(=O)c2ccc(C)cc2)cc1 (some centres unmarked) [Compound 37],180,140
CCCCC(CC)CNC(=O)[C@@H](Cc1ccc(Cl)cc1)NC(=O)Nc1ccc(NS(=O)(=O)c2ccc(C)cc2)cc1 (some centres unmarked) [Compound 39],23,–
CCCCC(CC)CNC(=O)[C@@H](Cc1c[nH]c2ccccc12)NC(=O)Nc1ccc(NS(=O)(=O)c2ccc(C)cc2)cc1 (some centres unmarked) [Compound 40],130,199
Cc1ccc(S(=O)(=O)Nc2ccc(NC(=O)N[C@H](CC3CCCCC3)C(=O)NC3CCCCCC3)cc2)cc1 [Compound 41],76,333
Cc1ccc(S(=O)(=O)Nc2ccc(NC(=O)N[C@H](Cc3ccc(Cl)cc3)C(=O)NC3CCCCCC3)cc2)cc1 [Compound 42],92,–
Cc1ccc(S(=O)(=O)Nc2ccc(NC(=O)N[C@H](Cc3c[nH]c4ccccc34)C(=O)NC3CCCCCC3)cc2)cc1 [Compound 43],160,160

# Now from value to compound:
EC50 [nM],GLP-1 receptor action enhancing activity (vs BETP),Compound
680,37,CCCCCCNC(=O)[C@@H](Cc1ccccc1)NC(=O)Nc1ccc(NS(=O)(=O)c2ccc(C)cc2)cc1 [Compound 2]
1700,15,Cc1ccc(S(=O)(=O)Nc2ccc(NC(=O)N[C@H](Cc3ccccc3)C(=O)NC3CCCCC3)cc2)cc1 [Compound 3]
1900,13,Cc1ccc(S(=O)(=O)Nc2ccc(NC(=O)N[C@H](Cc3ccccc3)C(=O)NCC(C)(C)C)cc2)cc1 [Compound 4]
51,490,CCCCCCCCNC(=O)[C@@H](Cc1ccccc1)NC(=O)Nc1ccc(NS(=O)(=O)c2ccc(C)cc2)cc1 [Compound 5]
130,187,CCCCCCCNC(=O)[C@@H](Cc1ccccc1)NC(=O)Nc1ccc(NS(=O)(=O)c2ccc(C)cc2)cc1 [Compound 6]
50,505,Cc1ccc(S(=O)(=O)Nc2ccc(NC(=O)N[C@H](Cc3ccccc3)C(=O)NCC#N)cc2)cc1 [Compound 7]
500,50,Cc1ccc(S(=O)(=O)Nc2ccc(NC(=O)N[C@H](Cc3ccccc3)C(=O)NCC3CCCCC3)cc2)cc1 [Compound 8]
650,39,COC(C)(C)CNC(=O)[C@@H](Cc1ccccc1)NC(=O)Nc1ccc(NS(=O)(=O)c2ccc(C)cc2)cc1 [Compound 9]
380,67,CCC(CC)CNC(=O)[C@@H](Cc1ccccc1)NC(=O)Nc1ccc(NS(=O)(=O)c2ccc(C)cc2)cc1 [Compound 10]
540,47,Cc1ccc(S(=O)(=O)Nc2ccc(NC(=O)N[C@H](Cc3ccccc3)C(=O)NCc3cccs3)cc2)cc1 [Compound 12]
1700,15,Cc1ccc(S(=O)(=O)Nc2ccc(NC(=O)N[C@H](Cc3ccccc3)C(=O)NCCc3ccccc3)cc2)cc1 [Compound 13]
1800,14,Cc1ccc(S(=O)(=O)Nc2ccc(NC(=O)N[C@H](Cc3ccccc3)C(=O)NCc3ccccc3)cc2)cc1 [Compound 14]
42,599,Cc1ccc(S(=O)(=O)Nc2ccc(NC(=O)N[C@H](Cc3ccccc3)C(=O)NCC(F)(F)F)cc2)cc1 [Compound 15]
520,48,CCCCCCNC(=O)[C@@H](Cc1ccc(F)cc1)NC(=O)Nc1ccc(NS(=O)(=O)c2ccc(C)cc2)cc1 [Compound 17]
220,116,Cc1ccc(S(=O)(=O)Nc2ccc(NC(=O)N[C@H](Cc3ccccc3)C(=O)NCCC3CCCCC3)cc2)cc1 [Compound 22]
1400,18,COc1ccc(CNC(=O)[C@@H](Cc2ccccc2)NC(=O)Nc2ccc(NS(=O)(=O)c3ccc(C)cc3)cc2)cc1 [Compound 25]
1100,24,Cc1ccc(S(=O)(=O)Nc2ccc(NC(=O)N[C@H](Cc3ccccc3)C(=O)NCc3ccc(F)cc3)cc2)cc1 [Compound 26]
1100,23,Cc1ccc(S(=O)(=O)Nc2ccc(NC(=O)N[C@H](Cc3ccccc3)C(=O)NCC3CCCC3)cc2)cc1 [Compound 27]
480,52,Cc1ccc(S(=O)(=O)Nc2ccc(NC(=O)N[C@H](Cc3ccccc3)C(=O)N[C@@H](C)c3ccccc3)cc2)cc1 [Compound 31]
820,31,Cc1ccc(S(=O)(=O)Nc2ccc(NC(=O)N[C@H](Cc3ccccc3)C(=O)NCc3ccc(C)o3)cc2)cc1 [Compound 32]
64,391,CCCCC(CC)CNC(=O)[C@@H](Cc1ccccc1)NC(=O)Nc1ccc(NS(=O)(=O)c2ccc(C)cc2)cc1 (some centres unmarked) [Compound 34]
660,38,CCCCCNC(=O)[C@@H](Cc1ccccc1)NC(=O)Nc1ccc(NS(=O)(=O)c2ccc(C)cc2)cc1 [Compound 35]
